# pEC50, pIC50: −log10 of the molar value. Like-named read-outs stand apart in the source and are kept apart here.
# Columns and labels:
# [1] = Linearity PK studies in SCID mice; conditions: solution formulation
# [2] = In vivo pharmacokinetic study in Balb/C mice; set-up: species or system mouse; conditions: for Vd: 1 mg/kg, read-out: Vss
# [3] = target: T1, GR (Homo sapiens, UniProt P04150); assay: SAFETYScan NHR Protein Interaction, Antagonist; assay type: cell-based
# T1 sequence (P04150 1-777): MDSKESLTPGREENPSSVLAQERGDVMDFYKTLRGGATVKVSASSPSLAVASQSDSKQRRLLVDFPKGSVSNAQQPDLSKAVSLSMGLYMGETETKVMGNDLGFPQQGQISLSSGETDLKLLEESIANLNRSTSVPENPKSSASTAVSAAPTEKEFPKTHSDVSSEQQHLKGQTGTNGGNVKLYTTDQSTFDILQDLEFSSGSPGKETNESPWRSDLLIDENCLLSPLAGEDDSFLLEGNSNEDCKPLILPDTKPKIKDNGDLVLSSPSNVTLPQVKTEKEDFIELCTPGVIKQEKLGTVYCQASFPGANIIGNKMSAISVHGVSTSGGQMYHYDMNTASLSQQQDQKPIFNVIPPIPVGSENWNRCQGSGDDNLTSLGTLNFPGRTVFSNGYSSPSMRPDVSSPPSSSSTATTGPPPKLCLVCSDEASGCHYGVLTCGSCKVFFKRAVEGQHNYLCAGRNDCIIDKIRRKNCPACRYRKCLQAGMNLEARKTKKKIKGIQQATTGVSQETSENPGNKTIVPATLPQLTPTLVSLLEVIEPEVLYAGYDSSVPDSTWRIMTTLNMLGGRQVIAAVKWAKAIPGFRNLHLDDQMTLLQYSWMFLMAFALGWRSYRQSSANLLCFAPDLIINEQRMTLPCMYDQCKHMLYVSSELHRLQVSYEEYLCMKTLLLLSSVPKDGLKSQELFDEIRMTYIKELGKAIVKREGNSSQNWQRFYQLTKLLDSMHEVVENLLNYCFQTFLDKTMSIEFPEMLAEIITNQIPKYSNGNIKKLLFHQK
# Description: (§1) Supplement jm1c02175_si_002.xlsx, sheet "SAFETYScan" | column: RC50 (uM); Max Response
# [4] = target: nAChR(a4/b2) (Homo sapiens, UniProt P17787+P43681); assay: SAFETYScan Ion Channel, Blocker; assay type: cell-based
# Description: as §1
# [5] = target: CAV1.2 (Homo sapiens, UniProt Q13936); assay: SAFETYScan Ion Channel, Blocker; assay type: cell-based
# Description: as §1
# [6] = target: KvLQT1/minK (Homo sapiens, UniProt P51787); assay: SAFETYScan Ion Channel, Blocker; assay type: cell-based
# Description: as §1
# [7] = system: OCI-Ly3; assay: Cell proliferation assay (14 days), OCI-Ly3
# Description: (§2) Cells were seeded in 96-well culture plates at a density of 2500 cells/well in RPMI-1640 medium (Sigma-
# (§3) Aldrich) supplemented with 10% FBS (Gibco). Compounds were initially dispensed into 96-well U-bottom
# (§4) plates using an Echo 550 acoustic dispenser (Labcyte Inc.), then diluted in RPMI-1640 medium and
# (§5) transferred onto the cells. Cells were treated with 8 compound concentrations in duplicate, ranging from
# (§6) with compound for 14 days, with medium changes at days 3, 7 and 10 carried out as follows: fresh 96-well
# (§7) cell culture plates were prepared containing 100 µl medium plus compound at the assay concentrations
# (§8) (white plates were used on day 10 to optimise luminescence measurement). Assay plates containing cells
# (§9) were vortexed to mix and cell density in one control well was counted using a Coulter Z2 cell counter
# (§10) (Beckman Coulter). The volume of medium containing 2500 cells in the control well was calculated and this volume of cells was transferred from every well of the assay plates to the corresponding well of the fresh plates containing compound. After 14 days, CellTiter Glo reagent (Promega) was added to the medium in each well of the assay plate at a ratio of 1:2, mixed on a plate shaker, then incubated at room temperature for 10 minutes. Luminescence was measured using an Envision plate reader (Perkin Elmer) and the relative luminescence at each compound concentration, compared to DMSO alone, was calculated. GI50 were determined using a 4-parameter curve fit in Dotmatics (Bishops Stortford, UK).
# [8] = system: OCI-Ly1; assay: Cell proliferation assay (14 days), OCI-Ly1
# Description: as §2, §3, §4, §5, §6, §7, §8, §9, §10
# [9] = target: LCK (Homo sapiens, UniProt P06239); assay: SAFETYScan Kinases Binding, Inhibitor
# Description: as §1
# [10] = target: INSR (Homo sapiens, UniProt P06213); assay: SAFETYScan Kinases Binding, Inhibitor
# Description: as §1
# [11] = target: ROCK1 (Homo sapiens, UniProt Q13464); assay: SAFETYScan Kinases Binding, Inhibitor
# Description: as §1
# [12] = target: VEGFR2 (Homo sapiens, UniProt P35968); assay: SAFETYScan Kinases Binding, Inhibitor
# Description: as §1
# [13] = target: COX1 (Homo sapiens, UniProt P23219); assay: SAFETYScan Non-Kinase Enzymes Enzymatic, Inhibitor; assay type: biochemical
# Description: as §1
# [14] = target: PDE4D2 (Homo sapiens, UniProt Q08499); assay: SAFETYScan Non-Kinase Enzymes Enzymatic, Inhibitor; assay type: biochemical
# Description: as §1
# [15] = target: COX2 (Homo sapiens, UniProt P35354); assay: SAFETYScan Non-Kinase Enzymes Enzymatic, Inhibitor; assay type: biochemical
# Description: as §1
# [16] = target: MAOA (Homo sapiens, UniProt P21397); assay: SAFETYScan Non-Kinase Enzymes Enzymatic, Inhibitor; assay type: biochemical
# Description: as §1
# [17] = target: AChE (Homo sapiens, UniProt P22303); assay: SAFETYScan Non-Kinase Enzymes Enzymatic, Inhibitor; assay type: biochemical
# Description: as §1
# [18] = target: PDE3A (Homo sapiens, UniProt Q14432); assay: SAFETYScan Non-Kinase Enzymes Enzymatic, Inhibitor; assay type: biochemical
# Description: as §1
# [19] = target: T2, DRD1 (Homo sapiens, UniProt P21728); assay: SAFETYScan GPCR cAMP, Agonist; assay type: cell-based
# T2 construct: expressed in transfected cells
# Description: as §1
# [20] = target: T3, ADRA2A (Homo sapiens, UniProt P08913); assay: SAFETYScan GPCR cAMP, Agonist; assay type: cell-based
# T3 construct: expressed in transfected cells
# T3 sequence (P08913 1-465): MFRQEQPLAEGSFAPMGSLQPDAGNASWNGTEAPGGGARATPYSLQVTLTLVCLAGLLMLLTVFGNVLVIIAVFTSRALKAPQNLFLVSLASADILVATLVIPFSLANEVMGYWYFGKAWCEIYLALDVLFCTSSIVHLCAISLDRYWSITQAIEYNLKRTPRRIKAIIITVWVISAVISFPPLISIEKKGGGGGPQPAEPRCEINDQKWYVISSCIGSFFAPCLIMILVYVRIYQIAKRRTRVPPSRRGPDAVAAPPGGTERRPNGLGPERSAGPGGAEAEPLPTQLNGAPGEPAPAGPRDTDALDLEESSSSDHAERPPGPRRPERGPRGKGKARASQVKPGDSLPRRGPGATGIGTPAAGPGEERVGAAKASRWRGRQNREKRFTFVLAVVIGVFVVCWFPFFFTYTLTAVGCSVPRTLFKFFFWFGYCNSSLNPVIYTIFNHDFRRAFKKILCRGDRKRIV
# Description: as §1
# KvLQT1/minK, sequence (P51787 whole entry): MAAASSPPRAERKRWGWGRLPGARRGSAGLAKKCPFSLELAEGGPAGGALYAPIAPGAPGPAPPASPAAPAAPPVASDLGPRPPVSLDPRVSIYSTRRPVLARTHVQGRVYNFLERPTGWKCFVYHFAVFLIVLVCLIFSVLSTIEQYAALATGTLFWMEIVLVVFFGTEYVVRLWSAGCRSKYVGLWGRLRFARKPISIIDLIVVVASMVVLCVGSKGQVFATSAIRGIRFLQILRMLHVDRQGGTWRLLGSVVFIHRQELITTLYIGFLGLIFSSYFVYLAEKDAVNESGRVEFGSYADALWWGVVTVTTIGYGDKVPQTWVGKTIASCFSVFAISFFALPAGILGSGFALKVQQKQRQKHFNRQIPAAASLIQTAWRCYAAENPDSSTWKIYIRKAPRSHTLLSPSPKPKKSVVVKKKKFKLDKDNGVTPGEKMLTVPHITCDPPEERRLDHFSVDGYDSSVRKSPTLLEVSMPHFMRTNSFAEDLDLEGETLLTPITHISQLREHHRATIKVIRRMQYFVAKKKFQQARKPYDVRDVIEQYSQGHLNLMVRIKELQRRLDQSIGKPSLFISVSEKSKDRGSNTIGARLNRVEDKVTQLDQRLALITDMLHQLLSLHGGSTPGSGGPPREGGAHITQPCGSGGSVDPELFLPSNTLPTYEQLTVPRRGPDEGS
# COX1, sequence (P23219 24-599): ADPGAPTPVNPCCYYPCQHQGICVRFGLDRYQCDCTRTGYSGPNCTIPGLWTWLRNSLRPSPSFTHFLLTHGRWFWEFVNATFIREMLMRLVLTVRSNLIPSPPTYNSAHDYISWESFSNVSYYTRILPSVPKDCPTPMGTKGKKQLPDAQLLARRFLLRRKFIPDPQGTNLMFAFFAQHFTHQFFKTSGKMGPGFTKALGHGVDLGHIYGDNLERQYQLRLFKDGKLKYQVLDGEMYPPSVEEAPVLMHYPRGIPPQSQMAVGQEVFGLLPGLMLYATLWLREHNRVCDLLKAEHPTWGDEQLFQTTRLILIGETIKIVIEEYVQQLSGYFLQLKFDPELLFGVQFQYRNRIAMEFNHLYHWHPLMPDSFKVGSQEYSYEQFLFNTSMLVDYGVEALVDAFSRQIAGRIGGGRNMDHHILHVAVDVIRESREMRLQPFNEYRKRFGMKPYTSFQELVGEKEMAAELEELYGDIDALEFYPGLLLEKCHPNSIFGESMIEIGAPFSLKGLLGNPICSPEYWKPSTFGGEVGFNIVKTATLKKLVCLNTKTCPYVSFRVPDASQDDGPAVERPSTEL
# nAChR(a4/b2), sequence (P43681 29-627 limits assumed): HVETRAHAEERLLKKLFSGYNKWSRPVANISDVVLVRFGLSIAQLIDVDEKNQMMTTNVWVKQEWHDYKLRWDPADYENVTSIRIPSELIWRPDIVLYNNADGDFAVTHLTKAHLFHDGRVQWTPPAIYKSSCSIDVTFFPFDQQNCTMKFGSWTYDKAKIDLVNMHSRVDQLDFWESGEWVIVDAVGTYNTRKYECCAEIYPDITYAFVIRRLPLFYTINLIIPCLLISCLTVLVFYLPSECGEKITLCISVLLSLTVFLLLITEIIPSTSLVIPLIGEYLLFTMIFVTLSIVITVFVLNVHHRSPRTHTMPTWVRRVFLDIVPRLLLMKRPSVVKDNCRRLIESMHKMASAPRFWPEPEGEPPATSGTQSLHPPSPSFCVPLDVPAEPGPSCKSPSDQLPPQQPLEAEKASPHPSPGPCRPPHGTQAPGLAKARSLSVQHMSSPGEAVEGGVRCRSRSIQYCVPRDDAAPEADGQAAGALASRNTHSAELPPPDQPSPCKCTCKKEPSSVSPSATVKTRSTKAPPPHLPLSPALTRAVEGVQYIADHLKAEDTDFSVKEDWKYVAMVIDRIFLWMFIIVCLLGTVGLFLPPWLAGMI
# nAChR(a4/b2), sequence (P17787 26-502): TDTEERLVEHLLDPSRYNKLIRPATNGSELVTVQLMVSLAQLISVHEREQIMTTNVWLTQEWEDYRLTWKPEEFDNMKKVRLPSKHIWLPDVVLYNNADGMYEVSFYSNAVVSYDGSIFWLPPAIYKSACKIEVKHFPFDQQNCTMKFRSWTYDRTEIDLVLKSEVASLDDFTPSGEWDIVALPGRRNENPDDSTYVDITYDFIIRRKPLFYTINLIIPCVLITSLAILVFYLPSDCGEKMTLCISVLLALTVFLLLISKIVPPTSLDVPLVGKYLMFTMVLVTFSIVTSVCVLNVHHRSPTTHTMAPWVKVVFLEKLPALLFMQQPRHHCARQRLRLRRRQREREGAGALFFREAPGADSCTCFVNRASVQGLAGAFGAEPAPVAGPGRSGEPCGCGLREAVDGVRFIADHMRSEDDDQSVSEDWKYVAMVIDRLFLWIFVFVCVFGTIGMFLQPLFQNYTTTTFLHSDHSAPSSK
# AChE, sequence (P22303 32-614): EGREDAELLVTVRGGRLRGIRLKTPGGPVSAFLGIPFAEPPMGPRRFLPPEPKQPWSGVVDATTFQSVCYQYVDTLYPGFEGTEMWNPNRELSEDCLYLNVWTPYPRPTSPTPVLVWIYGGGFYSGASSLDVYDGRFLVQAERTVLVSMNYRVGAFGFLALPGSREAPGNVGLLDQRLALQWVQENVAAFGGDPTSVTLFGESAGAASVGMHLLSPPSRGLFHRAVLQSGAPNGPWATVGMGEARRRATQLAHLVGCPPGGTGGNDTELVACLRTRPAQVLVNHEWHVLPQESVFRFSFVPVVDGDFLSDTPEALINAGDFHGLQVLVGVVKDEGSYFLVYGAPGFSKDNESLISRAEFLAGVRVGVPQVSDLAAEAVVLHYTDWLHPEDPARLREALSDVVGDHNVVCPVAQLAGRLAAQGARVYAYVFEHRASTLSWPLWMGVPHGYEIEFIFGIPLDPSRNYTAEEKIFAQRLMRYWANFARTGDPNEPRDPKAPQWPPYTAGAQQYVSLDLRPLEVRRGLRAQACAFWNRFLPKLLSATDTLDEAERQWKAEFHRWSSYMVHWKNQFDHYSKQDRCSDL
# COX2, sequence (P35354 18-604): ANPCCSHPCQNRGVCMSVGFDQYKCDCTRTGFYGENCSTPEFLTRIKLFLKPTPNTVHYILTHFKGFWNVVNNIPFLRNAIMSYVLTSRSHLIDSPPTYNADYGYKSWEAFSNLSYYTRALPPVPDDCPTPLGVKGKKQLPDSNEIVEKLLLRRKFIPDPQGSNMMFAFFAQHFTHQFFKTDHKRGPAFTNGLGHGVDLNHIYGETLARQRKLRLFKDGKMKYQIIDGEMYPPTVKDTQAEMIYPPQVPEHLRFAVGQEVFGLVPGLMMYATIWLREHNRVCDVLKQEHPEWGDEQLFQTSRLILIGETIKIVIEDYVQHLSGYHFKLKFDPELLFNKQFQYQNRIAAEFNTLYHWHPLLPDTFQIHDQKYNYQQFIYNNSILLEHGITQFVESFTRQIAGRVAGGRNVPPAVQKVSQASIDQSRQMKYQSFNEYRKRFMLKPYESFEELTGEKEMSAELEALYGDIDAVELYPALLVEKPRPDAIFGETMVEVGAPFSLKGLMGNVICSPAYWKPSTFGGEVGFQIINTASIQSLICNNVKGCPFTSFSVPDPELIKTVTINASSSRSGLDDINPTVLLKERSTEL
# VEGFR2, sequence (P35968 20-1356, species assumed): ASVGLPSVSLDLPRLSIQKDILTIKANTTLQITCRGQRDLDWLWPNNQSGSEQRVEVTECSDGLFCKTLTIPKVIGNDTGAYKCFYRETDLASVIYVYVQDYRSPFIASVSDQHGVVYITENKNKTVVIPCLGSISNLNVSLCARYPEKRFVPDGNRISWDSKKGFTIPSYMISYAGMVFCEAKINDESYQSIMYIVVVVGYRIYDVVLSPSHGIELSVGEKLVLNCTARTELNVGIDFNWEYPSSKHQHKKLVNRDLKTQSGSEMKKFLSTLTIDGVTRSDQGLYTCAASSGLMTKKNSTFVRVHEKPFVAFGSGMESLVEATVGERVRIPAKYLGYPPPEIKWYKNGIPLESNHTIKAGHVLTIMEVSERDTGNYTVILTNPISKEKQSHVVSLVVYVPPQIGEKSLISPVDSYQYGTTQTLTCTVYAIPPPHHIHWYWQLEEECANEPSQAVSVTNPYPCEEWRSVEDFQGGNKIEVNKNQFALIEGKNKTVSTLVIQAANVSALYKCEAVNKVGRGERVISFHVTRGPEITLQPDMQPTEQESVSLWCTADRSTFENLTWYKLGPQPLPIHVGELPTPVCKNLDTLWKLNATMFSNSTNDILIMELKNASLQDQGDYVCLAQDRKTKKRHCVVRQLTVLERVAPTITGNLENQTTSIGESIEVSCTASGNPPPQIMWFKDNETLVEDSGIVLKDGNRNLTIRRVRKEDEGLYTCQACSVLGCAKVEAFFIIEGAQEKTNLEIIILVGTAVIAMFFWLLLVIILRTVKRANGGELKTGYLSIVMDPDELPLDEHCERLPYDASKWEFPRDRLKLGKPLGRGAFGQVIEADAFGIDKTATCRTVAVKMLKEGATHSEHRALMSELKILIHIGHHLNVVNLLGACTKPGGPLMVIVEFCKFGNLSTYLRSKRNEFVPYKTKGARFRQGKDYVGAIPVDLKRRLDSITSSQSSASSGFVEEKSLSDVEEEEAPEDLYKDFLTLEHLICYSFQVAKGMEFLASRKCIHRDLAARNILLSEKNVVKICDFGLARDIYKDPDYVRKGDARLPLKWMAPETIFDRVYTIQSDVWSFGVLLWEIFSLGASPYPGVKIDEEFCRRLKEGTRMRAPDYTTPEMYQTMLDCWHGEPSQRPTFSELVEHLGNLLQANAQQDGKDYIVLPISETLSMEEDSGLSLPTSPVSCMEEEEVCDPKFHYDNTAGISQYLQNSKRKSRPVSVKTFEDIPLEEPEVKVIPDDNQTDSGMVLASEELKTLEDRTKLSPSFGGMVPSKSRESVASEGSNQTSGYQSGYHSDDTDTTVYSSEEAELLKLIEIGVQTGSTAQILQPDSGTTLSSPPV
smiles,measurement,setting,value
"C[C@H]1C[C@@H](O)CN(c2ncc(Cl)c(Nc3ccc4c(c3)c3c(c(=O)n4C)OCC(F)(F)[C@H](C4CC4)N3)n2)C1 [12a CCT373566, (S)-10-((5-Chloro-2-((3R,5S)-3-hydroxy-5-methylpiperidin-1-yl)pyrimidin-4-yl)amino)-2-cyclopropyl-3,3-difluoro-7-methyl-1,2,3,4-tetrahydro-[1,4]oxazepino[2,3-c]quinolin-6(7H)-one]",exposure versus dose,[1],exposure increased with the dose
same,appearance of mice after dosing,"[2]; 1 mg/kg i.v. and 5 mg/kg p.o., female Balb/C mice, after dosing and 24 h after dosing",appeared normal
same,increase in free concentration/exposure in vivo compared to CCT369260,"[2]; 5 mg/kg po, BALB/c mice",over fivefold increase
same,Vd,"[2]; Balb/C, mouse, whole blood, intravenous, initial PK studies",0.47 L/kg
same,CL as % Qh,[2]; female Balb/C mice,6 % Qh
same,bioavailability,"[2]; female, Balb/C, mouse, in vivo, po, 5 mg/kg",44%
same,Vd,"[2]; mouse, in vivo, female Balb/C mice",0.47 L/kg
same,clearance,"[2]; mouse, in vivo, iv, female Balb/C mice, 1 mg/kg i.v.",5.7 mL/min/kg
same,half-life at 6 h,"[2]; mouse, in vivo, po, 5 mg/kg, female Balb/C mice",1.15 h
same,Cmax,"[2]; mouse, in vivo, female Balb/C mice, 1 mg/kg i.v. and 5 mg/kg p.o.",3.95 µM
same,CLu,"[2]; unbound clearance, female Balb/C mice",4670 mL/min/kg
same,Emax,[3]; read-out: Max Response,2.11%
same,pIC50,[3]; read-out: RC50 (IC50),< 5.00
same,Emax,[4]; read-out: Max Response,7.49%
same,pIC50,[4]; read-out: RC50 (IC50),< 5.00
same,Emax,[5]; read-out: Max Response,0%
same,pIC50,[5]; read-out: RC50 (IC50),< 5.00
same,Emax,[6]; read-out: Max Response,13.1%
same,pIC50,[6]; read-out: RC50 (IC50),< 5.00
same,OCI-Ly3 GI50,"[7]; 14-day proliferation assay, BCL6 low-expressing cell line",not seen
same,GI50,"[7]; Homo sapiens, OCI-Ly3, 336 h, read-out: OCI-Ly3 GI50",1.9 µM
same,OCI-Ly1 GI50,[8]; 14-day proliferation assay,Very potent growth inhibition
same,GI50,"[8]; Homo sapiens, OCI-Ly1, 336 h, read-out: OCI-Ly1 GI50",0.0021 µM
same,Emax,[9]; read-out: Max Response,1.52%
same,pIC50,[9]; read-out: RC50 (IC50),< 5.00
same,Emax,[10]; read-out: Max Response,0%
same,pIC50,[10]; read-out: RC50 (IC50),< 5.00
same,Emax,[11]; read-out: Max Response,14.9%
same,pIC50,[11]; read-out: RC50 (IC50),< 5.00
same,Emax,[12]; read-out: Max Response,15.8%
same,pIC50,[12]; read-out: RC50 (IC50),< 5.00
same,Emax,[13]; read-out: Max Response,33%
same,pIC50,[13]; read-out: RC50 (IC50),< 5.00
same,Emax,[14]; read-out: Max Response,10.8%
same,pIC50,[14]; read-out: RC50 (IC50),< 5.00
same,Emax,[15]; read-out: Max Response,0%
same,pIC50,[15]; read-out: RC50 (IC50),< 5.00
same,Emax,[16]; read-out: Max Response,0%
same,pIC50,[16]; read-out: RC50 (IC50),< 5.00
same,Emax,[17]; read-out: Max Response,3.36%
same,pIC50,[17]; read-out: RC50 (IC50),< 5.00
same,Emax,[18]; read-out: Max Response,0.2%
same,pIC50,[18]; read-out: RC50 (IC50),< 5.00
same,Emax,[19]; read-out: Max Response,0%
same,pEC50,[19]; read-out: RC50 (EC50),< 5.00
same,Emax,[20]; read-out: Max Response,33.6%
same,pEC50,[20]; read-out: RC50 (EC50),< 5.00

# Source: article PMC9234961 (Journal of Medicinal Chemistry, 2022)
